Data on ten molecules can be found in ChEMBL document CHEMBL1201862, “PubChem BioAssay data set” (2004).

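Grown in 96-well plates, cells were treated for 48 hours with each compound at five concentrations. Insufficient inhibition: endpoint recorded as highest concentration tested. Here, GI50 denotes the concentration required for 50% inhibition of growth.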 Active and inactive are the calls of the source. Cut-off read from the data, not from the text of the source: active = GI50 up to about 1.1 µM and inactive = higher. Where only a bound is given, the exact number is not on record here.

Common to all, as to assay: DTP human tumour cell line panel, 48 h
Assay [1] deals with UO-31.
Assay [2] deals with SNB-75.
Assay [3] relates to Hs-578T.
In assay [4] the test system is COLO 205.
For assay [5], the system named is EKVX.
The test system of assay [6] is HOP-62.
Assay [7] deals with SK-MEL-28.
Assay [8] deals with SNB-19.
In assay [9] the test system is ACHN.
Assay [10] concerns UACC-62.
The subject of assay [11] is SK-OV-3.
In assay [12] the test system is DU-145.
For assay [13], the system named is CCRF-CEM.
The test system of assay [14] is HOP-92.
The test system of assay [15] is MDA-MB-435.
Assay [16] deals with OVCAR-3.
Assay [17] deals with RXF 393.
In assay [18] the test system is MDA-MB-231.
The test system of assay [19] is PC-3.
The test system of assay [20] is 786-0.

For the molecule `CN(C)CCO/N=C1/C=C2CC[C@H]3[C@@H]4CC[C@H](O)[C@@]4(C)CC[C@@H]3[C@@]2(C)CC1`, the GI50 (in general, the concentration that inhibits growth by half) in assay [1] was 12.3 µM (inactive); in [2], 3.48 µM (inactive); in assay [3] it was 4.91 µM (inactive); in [4], 16.2 µM (inactive); in assay [5], 15.6 µM (inactive); in assay [6], 12.1 µM (inactive). Also, the GI50 in assay [7] is 13.8 µM (inactive); in assay [8] it was 27.4 µM (inactive); in [9], 15.4 µM (inactive); in assay [10], 10.9 µM (inactive); in assay [11] it was 8.67 µM (inactive); in [12], 16.7 µM (inactive). Besides, the GI50 in [13] is 6.89 µM (inactive); in [14], 7.85 µM (inactive); in [15] it was 3.49 µM (inactive); in [16] it was 16.6 µM (inactive); in assay [17] it was 9.59 µM (inactive); in assay [18], 12.9 µM (inactive). For the same molecule, the GI50 in assay [19] is 18.2 µM (inactive); in assay [20], 8.85 µM (inactive).
Turning to `Oc1cc2c3c(c1)CCCN3CCC2`, the GI50 in assay [2], in assay [3], in assay [4], in assay [5], in assay [6] and in assay [7] was > 10 µM (inactive) throughout. The GI50 in assay [8], in assay [9], in assay [10], in assay [11], in [12] and in assay [13] was > 10 µM (inactive) throughout. The GI50 in assay [14], in [15], in [16], in assay [17], in assay [18] and in assay [19] was > 10 µM (inactive) throughout. Also, in assay [20], the GI50 is > 10 µM (inactive).
For `CCC1NC(=O)C1NC(=O)OC` (stereo unspecified), the GI50 in assay [1], in assay [2], in [3], in assay [4], in [5] and in [6] was > 100 µM (inactive) throughout. The GI50 in [7], in assay [8], in assay [9], in assay [10], in assay [11] and in [12] was > 100 µM (inactive) in each case. The GI50 in assay [13], in assay [14], in assay [15], in assay [16], in assay [17] and in [18] was > 100 µM (inactive) throughout. For the same molecule, the GI50 in assay [19] and in assay [20] was > 100 µM (inactive) throughout.
With `C[C@H]1CCC/C=C/[C@@H]2C[C@H](OC3OC(CO)C(O)C(O)C3O)C[C@H]2[C@H](O)/C=C/C(=O)O1` (stereo partly specified), the GI50 was 24.4 µM (inactive) in assay [1]; 35 µM (inactive) in assay [2]; 30.1 µM (inactive) in assay [3]; 17.2 µM (inactive) in assay [4]; > 100 µM (inactive) in [5]; > 100 µM (inactive) in [6]. The GI50 in assay [7] was 25.1 µM (inactive); in assay [8], > 100 µM (inactive); in assay [9], > 100 µM (inactive); in assay [10] it was 35.6 µM (inactive); in assay [11] it was 40 µM (inactive); in [12], > 100 µM (inactive). Also, the GI50 in assay [13] is > 100 µM (inactive); in assay [14] it was > 100 µM (inactive); in [15], 50.6 µM (inactive); in assay [16], 55.6 µM (inactive); in assay [17], 19 µM (inactive); in [18], 20.4 µM (inactive). Further, the GI50 was 64.6 µM (inactive) in assay [19] and 36.7 µM (inactive) in assay [20].
As to `O=c1cc(N2CCOCC2)[nH]c(=O)n1-c1cccc(Cl)c1`, the GI50 in assay [2], in [3], in assay [4], in assay [5], in [6] and in assay [7] was > 100 µM (inactive) in each case. The GI50 in assay [8], in assay [9], in assay [10], in assay [11], in assay [12] and in [13] was > 100 µM (inactive) in each case. Besides, the GI50 in [14], in assay [15], in [16], in assay [17], in [18] and in assay [19] was > 100 µM (inactive) each time. Also, the GI50 in assay [20] was > 100 µM (inactive).
For `N#Cc1sc2c(c1OC(=O)c1ccc(Cl)cc1)c(=O)n(-c1ccccc1)c(=S)n2-c1ccccc1`, the GI50 was 40.8 µM (inactive) in assay [2]; 15.6 µM (inactive) in assay [3]; 18.5 µM (inactive) in assay [4]; 21 µM (inactive) in assay [5]; 27.7 µM (inactive) in [6]; 16.9 µM (inactive) in [7]. Besides, the GI50 in assay [8] is 21.9 µM (inactive); in assay [9], 28.4 µM (inactive); in assay [10] it was 18.2 µM (inactive); in assay [11], 29.9 µM (inactive); in [12] it was 25.8 µM (inactive); in assay [13], 4.37 µM (inactive). The GI50 was 18.5 µM (inactive) in [14]; 20.6 µM (inactive) in assay [15]; 17.1 µM (inactive) in assay [16]; 19.7 µM (inactive) in assay [17]; 32.4 µM (inactive) in [18]; 21.7 µM (inactive) in [19]. In [20], the GI50 is 20.5 µM (inactive).
`C/C=C(\C)C(=O)OC1C(C)=C2C(C1OC(=O)CCCC)C(C)(OC(C)=O)CC(OC(=O)CCCC)C1(O)C2OC(=O)C1(C)O` (stereo unspecified): the GI50 in assay [1] was 15.4 µM (inactive); in [2] it was 0.828 µM (active); in [3], 0.625 µM (active); in [4], 0.891 µM (active); in assay [5], 8.22 µM (inactive); in [6] it was 0.431 µM (active). Besides, the GI50 in assay [7] is 0.893 µM (active); in assay [8] it was 0.41 µM (active); in assay [9], 4.8 µM (inactive); in [10], 1.57 µM (inactive); in [11] it was 4.11 µM (inactive); in assay [12], 3.71 µM (inactive). Also, the GI50 in assay [13] was 1.74 µM (inactive); in [14] it was 0.746 µM (active); in [15], 0.501 µM (active); in assay [16] it was 0.925 µM (active); in assay [17], 0.598 µM (active); in assay [18] it was 0.625 µM (active). The GI50 in assay [19] was 0.491 µM (active); in assay [20], 0.982 µM (active).
Regarding `CN1CCN(c2cc3[nH]c(-c4ccc(Cl)cc4)nc3cc2F)CC1`, the GI50 in assay [1] was 7.1 µM (inactive); in assay [2] it was 14.7 µM (inactive); in [3] it was 16.1 µM (inactive); in [4], 18.2 µM (inactive); in [5], 22.2 µM (inactive); in assay [6], 16.8 µM (inactive). The GI50 in [7] is 8.75 µM (inactive); in assay [8] it was 21.3 µM (inactive); in assay [9], 12.5 µM (inactive); in assay [10], 4.32 µM (inactive); in [11] it was 22.2 µM (inactive); in assay [12], 22.1 µM (inactive). For the same molecule, the GI50 in assay [13] is 13.4 µM (inactive); in assay [14], 25.4 µM (inactive); in [15] it was 11.4 µM (inactive); in [16], 11.8 µM (inactive); in assay [17] it was 13.8 µM (inactive); in assay [18], 17.4 µM (inactive). For the same molecule, the GI50 in [19] was 16.8 µM (inactive); in assay [20], 20.1 µM (inactive).
`Cc1ccc(-c2cc(-c3ccc(Cl)cc3)nc(/N=C3\C(=O)N(CN4CCOCC4)c4ccc(Cl)cc43)n2)cc1`: the GI50 is 24.9 µM (inactive) in assay [1]; 29.9 µM (inactive) in [2]; 24.3 µM (inactive) in assay [3]; 20.2 µM (inactive) in assay [4]; 15.2 µM (inactive) in assay [5]; 20.3 µM (inactive) in assay [6]. Moreover, the GI50 in assay [7] is 42.4 µM (inactive); in [8] it was 34.8 µM (inactive); in assay [9] it was 19.9 µM (inactive); in [10], 19.8 µM (inactive); in [11], 35.6 µM (inactive); in assay [12], 20.5 µM (inactive). Also, the GI50 in assay [13] is 20.4 µM (inactive); in [14], 17.9 µM (inactive); in [15], 24.4 µM (inactive); in assay [16] it was 33.3 µM (inactive); in assay [17], 13.8 µM (inactive); in assay [18], 30 µM (inactive). The GI50 in [19] is 30 µM (inactive); in [20], 22 µM (inactive).
Take `O=c1ccn(CC2(CO)CCC2)c(=O)[nH]1`: the GI50 in [1], in assay [2], in [3], in [4], in [5] and in assay [6] was > 100 µM (inactive) in each case. The GI50 in [7], in assay [9], in assay [10], in [11], in assay [12] and in assay [13] was > 100 µM (inactive) throughout. Further, the GI50 in assay [14], in assay [15], in assay [16], in assay [17], in assay [18] and in [19] was > 100 µM (inactive) each time. The GI50 in [20] was > 100 µM (inactive).
